Earlier results in patent US20120021064A1, “COMPOSITIONS FOR BOWEL PREPARATION AND METHODS OF USE THEREOF” (Salix Pharmaceuticals, Ltd., priority 2009, published 2012).
Where two headings read alike, the source gives them in different places.

SMILES: CC(=O)Oc1ccc(C(c2ccc(OC(C)=O)cc2)c2ccccn2)cc1 [Bisacodyl]
- time to produce a bowel movement (enemas): about 20 minutes
- time to produce a bowel movement (suppositories): about an hour
